Paper PMC3866116 (PLoS ONE, 2013)

Assays:
[1] = system: ISGs (Mx1, MxA, IFIT4, ISG15, OAS1, OAS2, OAS3); assay: RT-PCR of interferon stimulated genes in replicon cells; assay type: cell-based; settings: replicon cell line of genotype 1b, 48 h, listed as CAPE
Protocol: Total RNAs were prepared from cells by using the RNAqueous-4PCR kit (Life Technologies, Carlsbad, CA). Viral RNA were prepared from culture supernatants by using the QIAamp Viral RNA mini kit (QIAGEN, Hilden, Germany). The viral RNA genome was estimated by the qRT-PCR method described previously. RT-PCR was carried out by the method described previously which was slightly modified at the PCR step. The PCR samples were incubated once for 10 min at 95°C for an initial activation step of the AmpliTaq Gold DNA Polymerase (Life Technologies), and then subjected to an amplification step of 30 repeats of the cycle consisting of three segments as follow: 0.5 min at 95°C, 1 min at 55°C and 1 min at 72°C. The primers used in this study were as follows: Mx1: 5′-[…]-3′ and 5′-[…]-3′;

ISRE-promoter activity = assay: ISRE reporter assay in Huh7 OK1 cells; assay type: cell-based; settings: 48 h of treatment, interferon alpha 2b as positive control
HCV NS3 = assay: Western blotting of NS3 in Huh7/Rep-Feo cells; assay type: cell-based, hepatitis C virus; settings: Huh7/Rep-Feo cells treated 72 h, dose-dependent
Protocol: Western blotting was carried out by the method described previously. The antibodies to NS3 (clone 8G-2, mousemonoclonal, Abcam, Cambridge, UK), and beta-actin were purchased from Cell Signaling Technology (rabbit polyclonal, Danvers, MA, USA) and were used as the primary antibodies in this study.

[2] = system: HCV subgenomic replicon RNA of genotype 1b strain N (Huh7/Rep-Feo cells); assay: Luciferase assay in HCV subgenomic replicon cell line Huh7/Rep-Feo; assay type: cell-based, hepatitis C virus
Protocol: The Huh7/Rep-Feo cell line, which harbors the subgenomic replicon RNA composed of HCV IRES, the gene of the fusion protein consisting of neomycin phosphotransferase and firefly luciferase, EMCV IRES and a nonstructural gene of genotype 1b strain N in order in Huh7 cell line, was previously established. Thus, the luciferase activity corresponds to the level of HCV RNA replication. The cell line was maintained in Dulbecco's modified Eagle medium containing 10% fetal calf serum and 0.5 mg/mL G418 and cultured in absence of G418 when they were treated with compounds. The Lunet/Con1LUN Sb #26 cell line, which harbors the subgenomic replicon RNA of the Con1 strain (genotype 1b), was described previously. The OR6 cell line, which harbors the full genomic replicon RNA of the O strain (genotype 1b), was described previously. The HCV replicon cell line derived from the genotype 2a strain JFH1 was described previously. The viral RNA derived from the plasmid pJFH1 was transcribed and introduced into Huh7OK1 cells according to the method of Wakita et al.. The virus was amplified by the several times passages. The cells were infected with the virus at a multiplicity of infection (moi) of 1 and then treated with each compound at 24 h post-infection. The culture supernatants were harvested 72 h post-treatment to estimate the viral RNA as described below.
The replicon cells were seeded at 2×10^4 cells per well in a 48-well plate 24 h before treatment. […] The resulting cells were harvested 72 h post-treatment and lysed with cell culture lysis reagent (Promega, Madison, WI). The luciferase activity of each cell lysate was estimated using a luciferase assay system (Promega). The resulting luminescence was detected by a Luminescencer-JNR AB-2100 (ATTO, Tokyo, Japan).

[3] = Cytotoxicity (MTS assay) in Huh7/Rep-Feo replicon cells; assay type: cell-based; settings: human, Huh7/Rep-Feo cells, MTS, read-out: CC50, fifty percent cytotoxicity concentration based on the reduction in cell viability
Protocol: (§1) The replicon cells were seeded at a density of 1×10^4 cells per well in a 96-well plate and then incubated at 37°C for 24 h. […] Cell viability was measured using a dimethylthiazol carboxymethoxy-phenylsulfophenyl tetrazolium (MTS) assay with a CellTiter 96 aqueous one-solution cell proliferation assay kit (Promega).

Huh7/Rep-Feo cells = assay: as above; assay type: cell-based; settings: Huh7/Rep-Feo, 1.3 to 40 µM, 72 h
Protocol: as §1

SMILES: O=C(/C=C/c1ccc(O)c(O)c1)OCCc1ccccc1 [Compound 1, Caffeic acid phenethyl ester]
- transcriptional expressions of ISGs (Mx1, MxA, IFIT4, ISG15, OAS1, OAS2, OAS3) induced [1]: did not induce
- effect on ISRE-promoter activities (ISRE-promoter activity): no significant effects
- NS3 protein level (HCV NS3): decreased
- EC50 ([2]; Hepatitis C virus, Huh-7, 72 h, read-out: EC50, fifty percent effective concentration based on the inhibition of HCV replication): 9 ± 0.7 µM
- HCV RNA replication (luciferase activity) ([2]; Huh7/Rep-Feo, various concentrations (compound 1: 1.3 to 40 µM), 72 h, dose-dependent): suppressed
- CC50 at 72 h [3]: 136 ± 1.9 µM
- cell viability (Huh7/Rep-Feo cells): did not affect
